PubChem BioAssay AID1919016 (Molecular Pharmacology Branch, DTP, NCI, 2023)
pIC50: −log10 of the molar value. Where “and” joins values, the source holds several entries; their conditions need not be identical. Equal values may be shown once.

Tested on: NCI-H196 complex spheroid growth, percent test/control
Experiment: Anticancer human tumor NCI-H196 cell line growth inhibition [AhR];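 further: seven days of drug exposure starting three days after plating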;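 on viability, T/C: 100% = DMSO vehicle control wells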
Conditions: for viability, T/C: stronger effect = lower value
Summary of the method: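 Spheroids combined tumor cells with HUVEC endothelial cells and human MSCs as stroma. AhR antagonists were paired with standard or investigational drugs, each dosed in half-log steps down from near clinical Cmax, or from 10 microM where Cmax was unknown.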

[1] = curve of first compound, second compound 0.1 µM
[2] = curve of first compound, second compound 0.316 µM
[3] = curve of first compound, second compound 1 µM
[4] = curve of first compound, second compound 3.16 µM
[5] = curve of first compound, second compound 10 µM

In the case of `COc1cccc2c1C(=O)c1c(O)c3c(c(O)c1C2=O)CC(O)(C(=O)CO)CC3OC1CC(N)C(O)C(C)O1` (centres undefined), the viability, T/C (compound 0.0316 µM) was 95.5% and 104% and 102%, the viability, T/C (compound 0.1 µM) was 97.6% and 102% and 108% and the viability, T/C (compound 0.316 µM) was 82.6% and 76.4% and 99.2%. The viability, T/C (compound 1 µM) was 42.9% and 44.2% and 59%, the viability, T/C (compound 3.16 µM) was 0.87% and 1.36% and 2.64% and the viability, T/C (compound 10 µM) was 1.12% and 5.21% and 1.87%. The pIC50 (curve of compound) was 6.10 and 6.13 and 5.92.
For `O=C(C=Cn1cnc(-c2cc(C(F)(F)F)cc(C(F)(F)F)c2)n1)NNc1cnccn1` + CC(CO)NC(=O)c1cc(-c2ccc(Cl)cc2)nn(-c2cnn(C)c2)c1=O, the pIC50 [1] was 7.35, the pIC50 [2] was 7.43 and the pIC50 [3] was 7.48. It also gave a pIC50 [4] of 7.42, a pIC50 [5] of 7.34 and a viability, T/C (second compound 0.1 µM, first compound 0.00949 µM) of 71.2%. For the same compound, the viability, T/C (second compound 0.1 µM, first compound 0.03 µM) was 71.1%, the viability, T/C (second compound 0.1 µM, first compound 0.0949 µM) was 11.6% and the viability, T/C (second compound 0.1 µM, first compound 0.3 µM) was 11.1%. The viability, T/C (second compound 0.1 µM, first compound 0.949 µM) was 7.23%, the viability, T/C (second compound 0.1 µM, first compound 3 µM) was 6.89% and the viability, T/C (second compound 0.316 µM, first compound 0.00949 µM) was 74.7%. For the same compound, the viability, T/C (second compound 0.316 µM, first compound 0.03 µM) was 58.2%, the viability, T/C (second compound 0.316 µM, first compound 0.0949 µM) was 14.9% and the viability, T/C (second compound 0.316 µM, first compound 0.3 µM) was 12.3%. It also gave a viability, T/C (second compound 0.316 µM, first compound 0.949 µM) of 8.19%, a viability, T/C (second compound 0.316 µM, first compound 3 µM) of 7.69% and a viability, T/C (second compound 1 µM, first compound 0.00949 µM) of 73.2%. It also gave a viability, T/C (second compound 1 µM, first compound 0.03 µM) of 53.6%, a viability, T/C (second compound 1 µM, first compound 0.0949 µM) of 14.3% and a viability, T/C (second compound 1 µM, first compound 0.3 µM) of 7.96%. For the same compound, the viability, T/C (second compound 1 µM, first compound 0.949 µM) was 8.07%, the viability, T/C (second compound 1 µM, first compound 3 µM) was 6.9% and the viability, T/C (second compound 3.16 µM, first compound 0.00949 µM) was 75.9%. The viability, T/C (second compound 3.16 µM, first compound 0.03 µM) was 59.1%, the viability, T/C (second compound 3.16 µM, first compound 0.0949 µM) was 16.4% and the viability, T/C (second compound 3.16 µM, first compound 0.3 µM) was 7.92%. The viability, T/C (second compound 3.16 µM, first compound 0.949 µM) was 6.29%, the viability, T/C (second compound 3.16 µM, first compound 3 µM) was 7.99% and the viability, T/C (second compound 10 µM, first compound 0.00949 µM) was 80.6%. For the same compound, the viability, T/C (second compound 10 µM, first compound 0.03 µM) was 69.1%, the viability, T/C (second compound 10 µM, first compound 0.0949 µM) was 17.2% and the viability, T/C (second compound 10 µM, first compound 0.3 µM) was 11.2%. For the same compound, the viability, T/C (second compound 10 µM, first compound 0.949 µM) was 10.8% and the viability, T/C (second compound 10 µM, first compound 3 µM) was 7.46%.
For `O=C(C=Cc1cccc(S(=O)(=O)Nc2ccccc2)c1)NO`, the viability, T/C (compound 0.0316 µM) was 93.5% and 93.7% and 104%, the viability, T/C (compound 0.1 µM) was 107% and 95.2% and 101% and the viability, T/C (compound 0.316 µM) was 78.8% and 87.2% and 93.9%. The viability, T/C (compound 1 µM) was 61.2% and 73.3% and 75.5%, the viability, T/C (compound 3.16 µM) was 21.6% and 27.8% and 22.7% and the viability, T/C (compound 10 µM) was 0.64% and 0.72% and 0.55%. The pIC50 (curve of compound) was 5.88 and 5.75 and 5.76.
With `Nc1ccn(C2OC(CO)C(O)C2(F)F)c(=O)n1` (centres undefined) + Cc1cncc(-c2nc(NCCc3c[nH]c4ccccc34)c3ncn(C(C)C)c3n2)c1 the pIC50 [1] was 6.42, the pIC50 [2] was 6.21 and the pIC50 [3] was 6.09. The pIC50 [4] was 6.54, the pIC50 [5] was < 5.00 and the viability, T/C (second compound 0.1 µM, first compound 0.0316 µM) was 71.4%. For the same compound, the viability, T/C (second compound 0.1 µM, first compound 0.1 µM) was 60.1%, the viability, T/C (second compound 0.1 µM, first compound 0.316 µM) was 50.4% and the viability, T/C (second compound 0.1 µM, first compound 1 µM) was 48.8%. The viability, T/C (second compound 0.1 µM, first compound 3.16 µM) was 43.4%, the viability, T/C (second compound 0.1 µM, first compound 10 µM) was 52% and the viability, T/C (second compound 0.316 µM, first compound 0.0316 µM) was 83.1%. The viability, T/C (second compound 0.316 µM, first compound 0.1 µM) was 62.8%, the viability, T/C (second compound 0.316 µM, first compound 0.316 µM) was 51.4% and the viability, T/C (second compound 0.316 µM, first compound 1 µM) was 47.3%. It also gave a viability, T/C (second compound 0.316 µM, first compound 3.16 µM) of 51.3%, a viability, T/C (second compound 0.316 µM, first compound 10 µM) of 43.8% and a viability, T/C (second compound 1 µM, first compound 0.0316 µM) of 71.5%. It also gave a viability, T/C (second compound 1 µM, first compound 0.1 µM) of 60.7%, a viability, T/C (second compound 1 µM, first compound 0.316 µM) of 49.5% and a viability, T/C (second compound 1 µM, first compound 1 µM) of 54.3%. For the same compound, the viability, T/C (second compound 1 µM, first compound 3.16 µM) was 45.5%, the viability, T/C (second compound 1 µM, first compound 10 µM) was 46.7% and the viability, T/C (second compound 3.16 µM, first compound 0.0316 µM) was 81.3%. It also gave a viability, T/C (second compound 3.16 µM, first compound 0.1 µM) of 70.6%, a viability, T/C (second compound 3.16 µM, first compound 0.316 µM) of 48.3% and a viability, T/C (second compound 3.16 µM, first compound 1 µM) of 45.2%. For the same compound, the viability, T/C (second compound 3.16 µM, first compound 3.16 µM) was 47.8%, the viability, T/C (second compound 3.16 µM, first compound 10 µM) was 45.3% and the viability, T/C (second compound 10 µM, first compound 0.0316 µM) was 76.6%. It also gave a viability, T/C (second compound 10 µM, first compound 0.1 µM) of 88.1%, a viability, T/C (second compound 10 µM, first compound 0.316 µM) of 78% and a viability, T/C (second compound 10 µM, first compound 1 µM) of 53.1%. For the same compound, the viability, T/C (second compound 10 µM, first compound 3.16 µM) was 54.8% and the viability, T/C (second compound 10 µM, first compound 10 µM) was 57.1%.
